Data as given in article PMC8834506, “Optimization of Thymidine Kinase-Based Safety Switch for Neural Cell Therapy” (Cells, 2022).
Read-outs that look alike come from different tables or passages of the source.

Test system: ReNcells Ki67-SR39h (proliferating)
Test: ATP-based assay, EC50 and kinetics of cell death in proliferating neural progenitors
Set-up: species or system human
Conditions: for EC50: Homo sapiens, 96 h GCV exposure
Method: We then compared the ability of GCV to kill proliferating NPC that expressed the SR39h thymidine kinase under the control of the ubiquitin (ReNcells Ubi-SR39h) or the Ki67 promoter. (ReNcells Ki67-SR39h) (Figure 4). For this purpose, we first performed a dose response to GCV on undifferentiated NPC. […] We then explored the kinetic of cell death with the suicide enzyme driven either by Ki67 or ubiquitin promoter for different concentrations of GCV. The rapidity of cell death induction but not its final extent was a function of the GCV concentrations. […] This was true for a short-term treatment at 24 h and 48 h, but not at the later time points at 72 h and 96 h (Figure 4D).
Figure 4 EC50 and kinetics of GCV-induced cell death in proliferating and post-mitotic ReNcells. SR39h was expressed in ReNcells (immortalized neural precursor cells that can be differentiated to post-mitotic neurons) under the control of the two different promoters: Ki67 or ubiquitin. Wild type ReNcells were used as control. […] (B–D) Kinetics of cell death of SR39-expressing ReNcells cells either under the control of cycle promoter Ki67 or ubiquitin promoter with increasing GCV concentrations of 1, 10, and 100 µM. Cell viability was measured every 24 h using a bioluminescent ATP-based assay (n = 3). (E) ReNcells were differentiated toward post-mitotic neurons for 21 days then treated with GCV for 10 days. Cell viability was measured using an ATP-based assay. Results are mean + SD of three independent experiments performed in triplicates. (F) Immunostaining, Hoechst in blue and Beta III tubulin (βIII tub) in green, ReNcells were differentiated toward neurons for 21 days, then treated with 10 µM of GCV during 10 days. TEXT PRINTED IN THE PICTURE: (A) GCV: ReNcell wt: 1.2 x 10^-5; ReNcell Ki67-SR39h: 2.1 x 10^-9; ReNcell Ki67-SR39h: 2.1 x 10^-9 DOUBTS OF THE COPYIST ABOUT THIS PICTURE: Panel A table: the picture prints no measure or unit for the three values. The only printed substance label is the axis title 'GCV in M', and the table rows are cell lines, so they are written as targets of the values.
Cell culture plate (96 wells plate Corning #3907, Corning, Lonay, Switzerland) were pre-coated with 60 μL per well of Poly-L-ornithine solution (Sigma, Merk, Eysins, Switzerland) at 37 °C for 30 min. […] For EC50 assays, the medium was changed daily for 4 days, then cell viability was assessed using an ATP-based assay. EC50 values for each construct were calculated using a four parameters equation (GraphPad, Prism8, San Diego, CA, USA). […] Luminescence was measured using Spectra L384/L96 (0.2 sec exposure, Molecular devices, Biberach an der Riß, Germany).

For `Nc1nc(O)c2ncn(COC(CO)CO)c2n1` [GCV, ganciclovir], the “Cell death induction kinetics, Ki67-SR39h compared to Ubi-SR39h” value (1 μM and 10 μM GCV, measured every 24 h) was “no significant differences”, the “Cell death induction kinetics, Ki67-SR39h compared to Ubi-SR39h” value (100 μM GCV, at 24 h and 48 h, not at 72 h and 96 h) was “slightly slower dynamic of cell death” and the EC50 (24-point dose response, n = 3, read-out: EC50 of GCV, ReNcell Ki67-SR39h) was 2.1 nM. It also gave an EC50 (undifferentiated NPC, read-out: EC50 of GCV) of roughly 2.1 nM.
